# PMC10132233 (Journal of Enzyme Inhibition and Medicinal Chemistry, 2023)
# Test system: PC3 cells
# Assay: Apoptosis analysis (Annexin V-PE/DAPI), PC3
# Assay type: cell-based, human
# Details: PC3, compound at its IC50, 24 h
# Procedure: The control PC3 and 22RV1 cells and compound-treated cells were stained with PE-Annexin V and DAPI for a more appropriate cell death examination, and the cellular fluorescence analysis was then performed using ADAMII LS (Figures 4–6). Apoptosis is a type of programmed cell death that can be detected using Annexin V and the DAPI reagent. On plasma membranes, annexin V binds to […] and DAPI can bind to DNA in cells. The dot plot and image data detect early and late apoptotic cells using these two fluorophores. […] Moreover, compound 9f-treated PC3 cells went through early apoptosis (6.27%), and late apoptosis phase (16.94%) (Figures 4(D) and 6). Likewise, the fluorescence images for 22RV1 (Figure 5) and PC3 (Figure 6) cells complement the dot plot data, as higher fluorescence of DAPI and RF images clearly distinguished compound 9f-treated cells from control. […]
# Annexin V conjugated to fluorochromes (PE) retains its high affinity for phosphatidylserine (PS), making it a sensitive probe for flow cytometric analysis of apoptotic cells. […] When apoptosis is measured over time, cells can often be tracked from PE Annexin V and DAPI negative (viable, or no measurable apoptosis), to PE Annexin V positive and DAPI negative (early apoptosis), and finally to PE Annexin V and DAPI positive (end stage apoptosis and death). […]
smiles,measurement,value
"COc1cc2ncnc(Nc3ccc(Oc4cccc(C(F)(F)F)c4)c(Cl)c3)c2cc1OCCCCn1ccnc1[N+](=O)[O-] [Compound 9f, N-(3-Chloro-4-(3-(trifluoromethyl)phenoxy)phenyl)-7-methoxy-6-(4-(2-nitro-1H-imidazol-1-yl)butoxy)quinazolin-4-amine]",early apoptosis (E.A),6.27%
same,late apoptosis (L.A),16.94%
